From patent US20080146509A1, “COMPOSITIONS FOR DELIVERING PARATHYROID HORMONE AND CALCITONIN” (EMISPHERE TECHNOLOGIES, INC., priority 2002, published 2008) come the findings set out here.

This series in a line: Mean peak blood calcitonin concentration (Cmax) of sCT after oral capsule dosing of monkeys. The class given is in vivo, cynomolgous monkeys. The source says: 5-CNAC disodium salt ethanol solvate was screened through a 35 mesh Tyler standard sieve. 13.54 g of this material was weighed out and kept in a weighing boat. 0.028 g of parathyroid hormone (PTH) and 0.025 g of salmon calcitonin (sCT) were separately weighed out and kept in separate weighing boats. An amount of the previously weighed 5-CNAC disodium salt ethanol solvate approximately equivalent in volume to the total volume of PTH (i.e. a geometric amount) was prescreened through the same 35 mesh Tyler standard sieve on to clean paper. All the PTH was then screened through the same sieve onto the same paper. An amount of the screened 5-CNAC disodium salt ethanol solvate equivalent in volume to the total amount of material on the paper was screened through the same sieve. This was followed by screening the sCT through the same sieve on to the paper. A geometric amount of the 5-CNAC disodium salt ethanol solvate was then screened through the same sieve onto the paper. The materials on the paper were then transferred to a glass mortar and mixed by light trituration with a pestle. The remainder of the 5-CNAC disodium salt ethanol solvate was screened through the same 35 mesh Tyler standard sieve. […]
Four cynomolgous monkeys were dosed via a feeding tube two capsules each followed by 10 ml water. The mean peak blood calcitonin concentration, Cmax, of sCT was then measured.

The structures appear in SMILES notation.

Take `CC(C)C[C@H](NC(=O)[C@H](CCCCN)NC(=O)CNC(=O)[C@H](CC(C)C)NC(=O)[C@@H](NC(=O)[C@@H]1CSSC[C@H](N)C(=O)N[C@@H](CO)C(=O)N[C@@H](CC(N)=O)C(=O)N[C@@H](CC(C)C)C(=O)N[C@@H](CO)C(=O)N[C@@H]([C@@H](C)O)C(=O)N1)C(C)C)C(=O)N[C@@H](CO)C(=O)N[C@@H](CCC(N)=O)C(=O)N[C@@H](CCC(=O)O)C(=O)N[C@@H](CC(C)C)C(=O)N[C@@H](Cc1c[nH]cn1)C(=O)N[C@@H](CCCCN)C(=O)N[C@@H](CC(C)C)C(=O)N[C@@H](CCC(N)=O)C(=O)N[C@H](C(=O)N[C@@H](Cc1ccc(O)cc1)C(=O)N1CCC[C@H]1C(=O)N[C@@H](CCCNC(=N)N)C(=O)N[C@H](C(=O)N[C@@H](CC(N)=O)C(=O)N[C@H](C(=O)NCC(=O)N[C@@H](CO)C(=O)NCC(=O)N[C@H](C(=O)N1CCC[C@H]1C(N)=O)[C@@H](C)O)[C@@H](C)O)[C@@H](C)O)[C@@H](C)O` [sCT, salmon calcitonin]: the “mean peak blood concentration of sCT relative to that found when dosing capsules of 5-CNAC and sCT in rhesus monkeys” value (capsules of 5-CNAC disodium salt ethanol solvate, PTH and sCT in cynomolgous monkeys vs capsules of 5-CNAC and sCT in rhesus monkeys) is recorded as “about four”. In addition, under “monkey, blood, oral, cynomolgous monkeys, via feeding tube two capsules each (per capsule approx. 226.28 mg 5-CNAC disodium salt ethanol solvate, 0.461 mg PTH, 0.411 mg sCT) followed by 10 ml water”, the Cmax lay in the range of 2 to 2.5 ng/mL.

What is called Cmax is the maximum level reached in the sampled fluid or tissue.
